“Also recorded” adds a separate entry of the source. Like-named read-outs stand apart in the source and are kept apart here.
Tests used:
[1] = Oral absorption in dogs; format: in vivo
Procedure: The highest plasma concentrations generally occurred in 1-2 hours. […] The highest level of inhibition was ˜35% for 2C19 at a 30 μM concentration. […] Lastly, VGX-1027 is stable in human liver S9 fractions (with phase 1 and 2 cofactors) with t1/2>90 minutes, which indicates a low likelihood of metabolism in the liver.

[2] = system: 30 primary molecular targets; test: Radioligand binding assay (MDS Pharma HitProfiling Screen); details: 30 targets, concentrations up to 10 μM; significant = ≧50% inhibition or stimulation
Procedure: VGX-1027 was negative in a radioligand binding assay (MDS Pharma HitProfiling Screen) that tested 30 primary molecular targets at concentrations up to 10 μM. No significant response (≧50% inhibition or stimulation for Biochemical assays) were noted.

[3] = Rising MTD study in mice; details: mouse, in vivo, 1000 mg/kg/day, read-out: Approximate Cmax
Procedure: (Approximate Cmax@ [1000 mg/kg/day] was […]). Based on these studies, 10 mg was determined to be a safe starting dose in the human study.

[4] = Placebo-controlled ascending multiple-dose study in healthy subjects; format: in vivo, human; details: for Tmax / Cmax / AUC(0-t) / AUC: human, in vivo, oral; for Cmax / AUC(0-t) / AUC: Geo Mean; for AUC(0-t): read-out: AUC (0-24); for AUC: read-out: AUC (AUC to 12 hours)
Procedure: A placebo-controlled, ascending multiple-dose study was also performed to evaluate the safety and pharmacokinetics of VGX-1027 in healthy human subjects. The primary outcome to be measure was the safety as determined by vital signs, physical examinations, ECGs, clinical laboratory evaluations, and adverse event reporting. The secondary outcome measured was the pharmacokinetics on day 1 and at steady state-on day 5. Study was performed upon 4 groups of subjects: group 1: 40 mg of VGX-1027 QD; group 2: 100 mg of VGX-1027 QD; group 3: 200 mg of VGX-1027 QD; group 4: 200 mg of VGX-1027 BID. The pharmacokinetics is provided in Table 7, below, along with data from the single dose study: […]

[5] = system: splenic mononuclear cells (SMNC); test: Ex vivo proliferation and cytokine synthesis of SMNC from treated mice; format: cell-based
Procedure: These experiments were carried out to explore if intraperitoneal (i.p.) or oral administration (p.o.) in mice with VGX-1027 could influence the proliferative response of SMNC and the production of IL-1β, IL-10, TNF-α, IFN-γ and MIF from isolated PM and SMNC. PM and SMNC isolated from mice treated in vivo with VGX-1027 for 7 consecutive days intraperitoneally (0.5 mg/mouse), or orally (2.5 mg/mouse), or isolated from control animals that received VGX-1027 vehicle (Na2HPO4/H2O), or were without any treatment. 24 h after the last VGX-1027 treatment, PM and SMNC were collected for further in vitro stimulation and analysis.

[6] = system: MLD-STZ-induced diabetes; test: Streptozotocin (MLD-STZ) induced diabetes; format: in vivo, CBA/H mice
Procedure: (A) Euglycaemic female 12 week old NOD mice were treated intraperitoneally with either 20 mg/kg bw VGX-1027 or its vehicle six times a week from the 12th until the 25th week of age. An additional control group of mice was left untreated. Each group consisted of 16 mice. The data are representative of two independent experiments that were merged because of interstudies variability lower than 10%. Statistical analysis was performed by Logrank (Mantel-Cox). (B) Plasma glucose levels in control CBA/H mice receiving STZ (40 mg/kg/day, for 5 consecutive days) in conjunction with 12 daily intreperitoneum injections of vehicle (STZ), or in mice treated with STZ and VGX-1027 given as a continuous 12-day treatment. 100 mg/kg bw of VGX-1027, administered orally from day −1 to day +10. Results from a representative experiment are presented as mean±SD for seven to eight mice per group. *p<0.05 refers to treatment with MLD-STZ.
Both intraperitoneal and oral treatment with VGX-1027 suppressed clinical development of diabetes. Clinical development of diabetes was attempted to be induced in CBA/H mice by multiple low doses of streptozotocin. CBA/H mice developed sustained hyperglycemia over a 2-week period following MLD-STZ injections. As expected, CBA/H control mice treated with the vehicle of VGX-1027 either orally or intraperitoneally developed diabetes with sustained hyperglycemia developed over a 2-week period following MLD-STZ injections.
The effect of VGX-1027 with STZ-induced diabetes was also evaluated. STZ is a DNA alkylating agent with particular toxicity to pancreatic β cells. VGX-1027 was administered orally for 12 days, and STZ was administered into mice for 5 consecutive days starting a day after VGX-1027 treatment.

[7] = system: Normal human PBMCs; test: Ex vivo immune effects in PBMCs with plasma of dosed subjects; format: cell-based; details: LPS 5 μg/ml + plasma of 5th day after dosing
Procedure: Normal human PBMCs were isolated and cultured in the presence of LPS (5 μg/ml) with or without VGX-1027 treated plasma. Plasma samples were obtained by blood collection before and on the 5th day after VGX-1027 dosing in steady state. Cell free supernateants were analyzed for production of TNF-α and IL-1β 24 hours post treatment. Cytokine levels (pg/ml) were assayed by ELISA. Representative results were correlated with pro-inflammatory cytokine inhibition.

[8] = 100 mg, Multiple Dose (Day 1) 100 mg
[9] = 100 mg, Multiple Dose (Day 5) 100 mg
[10] = 200 mg, 200 mg BID, first dose, Day 1
[11] = 200 mg, 200 mg BID, first dose, Day 5
[12] = 200 mg, Multiple Dose (Day 1) 200 mg
[13] = 200 mg, Multiple Dose (Day 5) 200 mg

In the case of O=C(O)CC1CC(c2ccccc2)=NO1 (centres unmarked) [VGX-1027, 3-phenyl-4,5-dihydro-5-isoxazoleacetic acid], the oral absorption [1] is reported as “rapidly absorbed”, the “time of highest plasma concentrations” value [1] is reported as 1 to 2 h and the radioligand binding result [2] is reported as “negative”. For the same compound, the Cmax [3] was ~400000 ng/mL, the urine drug levels ([4]; CAT002 urine PK analysis) was “high drug levels in urine” and the Tmax [4, 8] was 1 h. For the same compound, the Cmax [4, 8] was 7570 ng/mL, the AUC(0-t) [4, 8] was 31300 ng·h/mL and the Tmax [4, 9] was 1.5 h. It also gave a Cmax [4, 9] of 6760 ng/mL, an AUC(0-t) [4, 9] of 23200 ng·h/mL and a Tmax [4, 10] of 1 h. The Cmax [4, 10] was 13100 ng/mL, the AUC [4, 10] was 58200 ng·h/mL and the Tmax [4, 11] was 1.5 h. It also gave a Cmax [4, 11] of 16800 ng/mL, an AUC [4, 11] of 70400 ng·h/mL and a Tmax [4, 12] of 1.3 h. The Cmax [4, 12] was 15700 ng/mL, the AUC(0-t) [4, 12] was 78100 ng·h/mL and the Tmax [4, 13] was 2 h. The Cmax [4, 13] was 14100 ng/mL, the AUC(0-t) [4, 13] was 65700 ng·h/mL and the dosing toxicities ([4]; up to 200 mg bid for 5 days) was “No dosing toxicities were observed”. The IFN-γ production [5] was “normal capacity”, the “IL-1 β production” value [5] was “normal capacity” and the IL-10 production [5] was “normal capacity”. For the same compound, the MIF expression [5] was “normal expression pattern”, the TNF-α production [5] was “normal capacity” and the capacity to proliferate ([5]; mice treated 7 days) was “normal capacity”. For the same compound, the “diabetogenic effect of MLD-STZ” value ([6]; intraperitoneally) was “significantly reduced”, the development of hyperglycemia ([6]; orally (100 mg/kg, 12 days), 100 mg/kg) was “did not develop hyperglycemia; also recorded: significantly reducing” and the “infiltration of immune cells, atrophy and loss of islet margins in pancreas” value ([6]; orally, 12 days) was “prevented”. For the same compound, the IL-1β levels [7] was “repressed to levels comparable to the negative controls” and the TNF-α levels [7] was “repressed to levels comparable to the negative controls”.
